Assay results taken from patent US5665367A, “Skin care compositions containing naringenin and/or quercetin and a retinoid” (Chesebrough-Pond's USA Co., Division of Conopco, Inc., priority 1996, dated 1997).
Where two headings read alike, the source gives them in different places.

What was measured:
[1] = tested on: transglutaminase I (TG1) in human keratinocytes; experiment: Transglutaminase assay (ELISA based TGase I assay) normalized to DNA in keratinocytes, Examples 2-4; type: cell-based; conditions: for inhibition of keratinocyte differentiation compared with retinoic acid: summary of the studies
Procedure: (§1) Human keratinocytes, isolated from neonatal foreskin by trypsin treatment were grown in Dulbecco Modification Eagle (DME) Hams F12 (1:1) medium/10% fetal calf serum in the presence of irradiated 3T3 mouse fibroblasts for establishing dividing keratinocyte colonies. Cells were grown under the above condition until their second passage and kept frozen for future use. Frozen second passage keratinocytes were thawed and plated into the above medium and grown for five days before they were switched to a serum-free MCDB 153-based medium keratinocyte growth medium (KGM) from Clonetics Corporation, San Diego, Calif., containing 0.15 mM Ca, or keratinocyte serum-free media (KSFM) from GIBCO containing 0.09 mM Ca). On day 7, when the cells were 80-90% confluent, they were trypsinized and plated in the serum-free medium for the various experiments.
(§2) During the process of terminal differentiation in the epidermis, a 15 nm thick layer of protein, known as the cornified envelope (CE) is formed on the inner surface of the cell periphery. The CE is composed of numerous distinct proteins which have been cross-linked together by the formation of N^ε -(γ-glutamyl) lysine isodipeptide bonds catalyzed by the action of at least two different transglutaminases (TGases) expressed in the epidermis. TGase 1 is expressed in abundance in the differentiated layers of the epidermis, especially the granular layer, but is absent in the undifferentiated basal epidermis. Thus TGase I is a useful marker of epidermal keratinocyte differentiation with high TGase I levels indicating a more differentiated state. An ELISA based TGase I assay, using a TGase I antibody, was used to assess the state of differentiation of the cultured keratinocytes in the examples that follow.
For Examples 2-4, the following procedure was used:
Keratinocytes (cultured as described above) were plated in 96 well plates at a density of 3,000 cells per well in 200 μl of cell culture media. After incubation for four days, the media was changed to media containing test compounds (six replicates per test). The cells were cultured for a further 72 hours after which time the media was aspirated and the plates stored at -70° C. After the plates were removed from the freezer, the cells were further freezed fractured by freezing and thawing and then washed 3x with PBS. The cells were incubated for one hour at room temperature (R/T) with TBS/5% BSA buffer. Cells were then incubated with 100 μl of monoclonal anti-human transglutaminase (IgG) mouse antibody (primary antibody) obtained from Biomedical Technologies Inc. diluted 1:2000 in TBS/1% BSA buffer for two hours at 37° C., and then rinsed six times with wash buffer (TBS/1% BSA/0.05% Tween-20). Cells were next incubated with 100 μl of Fab fragment, peroxidase conjugated anti-mouse IgG antibody (secondary antibody) from Amersham diluted 1:4,000 in wash buffer for two hours at 37° C. and then rinsed three times with wash buffer and three times with PBS. Cells were incubated with substrate solution (4mg o-phenylene diamine and 3.3 μl 30% H2 O2 in 10mL 0.1M citrate buffer, pH 5.0) for five minutes at R/T and in darkness (under aluminum foil). The reaction was stopped by the addition of 50 μl N H2 SO4. The absorbance of samples was read at 492 nm in the plate reader. Out of the six replicates, four were treated with both antibodies, two were treated only with the secondary antibody (i.e., to determine the background binding of the enzyme conjugated antibody). Transglutaminase I levels were determined by subtracted background from the readings from each treatment and determining the mean s.d. for the replicates exposed to both antibodies.
(§3) The level of TGase-1 detected after treatment of the cells could be influenced by cell number, i.e., the greater the number of cells the greater the level of TGase-1 detected. The level of TGase-1 was normalized to DNA content of the cells in the same well thus eliminating variation due to differences in cell number. […]

[2] = tested on: transglutaminase (TGase I) in human keratinocytes; experiment: Transglutaminase assay (ELISA based TGase I assay) normalized to DNA in keratinocytes, Example 1; type: cell-based; conditions: for mean TGase/DNA × 10^-4 ± s.d / activity at 0.25 µM / activity at 0.025 µM / activity at 0.0025 µM: 72 hours, Table 1, n = 3; for decrease in transglutaminase level, dose dependence: 2.5×10^-9 to 2.5×10^-7 M; for activity at 0.25 µM / activity at 0.025 µM / activity at 0.0025 µM: Homo sapiens, Keratinocyte, read-out: mean TGase/DNA (% control)
Procedure: as §1, §2
For Example 1, the following procedure was used:
Keratinocytes (cultured as described above) were plated in 96 well plates at a density of 3,000 cells per well in 200 μl media. After incubation for four days the media was changed to media containing test compounds (six replicates per test). The cells were cultured for a further 72 hours after which time the media was aspirated and the plates stored at -70° C. Plates were removed from the freezer, and the cells washed with PBS. 100 μl sterile water was added and the cells were freeze fractured by freezing at -70° C. then thawing. The cells were incubated for one hour at room temperature (R/T) with PBS/3% BSA (wash buffer, bovine serum albumin), then rinsed with a fresh aliquot of wash buffer. Cells were incubated with 50 μl of primary antibodies monoclonal anti-human transglutaminase mouse antibody (IgG) obtained from Biomedical Industries diluted 1:2,000 in wash buffer for one hour, 37° C. then rinsed two times with wash buffer. Cells were then incubated with 50 μl of secondary antibody (Fab fragment, peroxidase conjugated anti-mouse IgG obtaining from Amersham) diluted 1:4,000 in wash buffer for one hour at 37° C., then rinsed two times with wash buffer. Cells were incubated with substrate solution (4 mg o-phenylene diamine and 3.3 μl 30% H2 O2 in 10 ml 0.1M citrate buffer pH 5.0) for five minutes, R/T, in darkness (under aluminum foil). The reaction was stopped by the addition of 50 μl N H2 SO4. The absorbance of samples was read at 492 nm in the plate reader. Out of the six replicates, four were treated with both antibodies, two were treated only with the secondary antibody (i.e., to determine background binding of enzyme conjugated Ab). TGase levels were determined by subtracting background from the readings from each treatment and determining mean ±s.d. for the replicates exposed to both Ab.
as §3

[3] = Example 2: 2.5×10^-7 M retinoic acid, 2.5×10^-9 M retinol, 10^-7 M naringenin alone
[4] = Example 3: 2.5×10^-7 M retinoic acid, 2.5×10^-8 M retinyl palmitate, 10^-8 M naringenin alone
[5] = Example 4: 2.5×10^-7 M retinoic acid, 2.5×10^-7 M retinol, 10^-6 M quercetin alone
[6] = 2.5 × 10^-7 M, 72 hour treatment, Table 4 (Example 4), n = 3
[7] = Homo sapiens, Keratinocyte, 72 h, 2.5 × 10^-7 M, 72 hour treatment, Table 4 (Example 4), n = 3, read-out: mean TGase/DNA (% control)

Row | repression of keratinocyte TG1 level (in words) [1, 4] | Structure (SMILES) | repression of keratinocyte TG1 level (in words) [1, 3] | repression of keratinocyte TG1 level (in words) [1, 5] | mean TGase/DNA × 10^-5 ± s.d [1, 6] | activity at 0.25 µM [1, 7] [%] | decrease in transglutaminase level, dose dependence [2] | activity at 0.25 µM ([2]; 2.5 × 10^-7 M) [%] | activity at 0.025 µM ([2]; 2.5 × 10^-8 M) [%] | activity at 0.0025 µM ([2]; 2.5 × 10^-9 M) [%] | inhibition of keratinocyte differentiation compared with retinoic acid [1] | further results
1 | small inhibitory effect | O=C1C[C@@H](c2ccc(O)cc2)Oc2cc(O)cc(O)c21 [Naringenin, naringenin] | no inhibitory effect |  |  |  |  |  |  |  |  | mean TGase/DNA × 10^-5 ± s.d ([1]; 10^-7 M naringenin, 72 hour treatment, Table 2 (Example 2), n = 3): 49.84 ± 2.76 × 10^-5; mean TGase/DNA × 10^-5 ± s.d ([1]; 10^-8 M naringenin, 72 hour treatment, Table 3 (Example 3), n = 3): 45.01 ± 1.90 × 10^-5; activity at 0.1 µM ([1]; Homo sapiens, Keratinocyte, 72 h, 10^-7 M naringenin, 72 hour treatment, Table 2 (Example 2), n = 3, read-out: mean TGase/DNA (% control)): 94%; activity at 0.01 µM ([1]; Homo sapiens, Keratinocyte, 72 h, 10^-8 M naringenin, 72 hour treatment, Table 3 (Example 3), n = 3, read-out: mean TGase/DNA (% control)): 89%
2 |  | O=c1c(O)c(-c2ccc(O)c(O)c2)oc2cc(O)cc(O)c12 [Quercetin, quercetin] |  | only a small inhibitory effect |  |  |  |  |  |  |  | mean TGase/DNA × 10^-5 ± s.d ([1]; 10^-6 M quercetin, 72 hour treatment, Table 4 (Example 4), n = 3): 59.04 ± 3.38 × 10^-5; activity at 1 µM ([1]; Homo sapiens, Keratinocyte, 72 h, 10^-6 M quercetin, 72 hour treatment, Table 4 (Example 4), n = 3, read-out: mean TGase/DNA (% control)): 85%
3 |  | CC1=C(/C=C/C(C)=C/C=C/C(C)=C/CO)C(C)(C)CCC1 [Retinol, retinol] | ineffective | ineffective | 61.93 ± 5.18 × 10^-5 | 90 | dose dependent | 47 | 77 | > 100 | significantly less effective than retinoic acid | mean TGase/DNA × 10^-5 ± s.d ([1]; 2.5 × 10^-9 M retinol, 72 hour treatment, Table 2 (Example 2), n = 3): 48.31 ± 5.31 × 10^-5; mean TGase/DNA (% control) ([1]; 2.5 × 10^-9 M retinol, 72 hour treatment, Table 2 (Example 2), n = 3, 0.0025 µM, 4320 min): 91%; activity at 0.0025 µM ([1]; Homo sapiens, Keratinocyte, 72 h, 2.5 × 10^-9 M retinol, 72 hour treatment, Table 2 (Example 2), n = 3, read-out: mean TGase/DNA (% control)): 92%
4 | ineffective | CCCCCCCCCCCCCCCC(=O)OC/C=C(C)/C=C/C=C(C)/C=C/C1=C(C)CCCC1(C)C [Retinyl palmitate, retinyl palmitate] |  |  |  |  |  |  |  |  | significantly less effective than retinoic acid | mean TGase/DNA × 10^-5 ± s.d ([1]; 2.5 × 10^-8 M retinyl palmitate, 72 hour treatment, Table 3 (Example 3), n = 3): 47.32 ± 4.22 × 10^-5; activity at 0.025 µM ([1]; Homo sapiens, Keratinocyte, 72 h, 2.5 × 10^-8 M retinyl palmitate, 72 hour treatment, Table 3 (Example 3), n = 3, read-out: mean TGase/DNA (% control)): 93%

Row | Structure (SMILES) | repression of keratinocyte TG1 level (in words) [1, 4] | repression of keratinocyte TG1 level (in words) [1, 3] | repression of keratinocyte TG1 level (in words) [1, 5] | mean TGase/DNA × 10^-5 ± s.d [1, 6] | activity at 0.25 µM [1, 7] [%] | decrease in transglutaminase level, dose dependence [2] | activity at 0.25 µM ([2]; 2.5 × 10^-7 M) [%] | activity at 0.025 µM ([2]; 2.5 × 10^-8 M) [%] | activity at 0.0025 µM ([2]; 2.5 × 10^-9 M) [%] | inhibition of keratinocyte differentiation compared with retinoic acid [1] | further results
5 | CC1=C(/C=C/C(C)=C/C=C/C(C)=C/C(=O)O)C(C)(C)CCC1 [Retinoic acid, retinoic acid] | very effective | very effective | effective | 35.91 ± 3.01 × 10^-5 | 52 | in a dose dependant manner decreased transglutaminase I levels | 7 | 55 | 77 |  | mean TGase/DNA × 10^-5 ± s.d ([1]; 2.5 × 10^-7 M RA, 72 hour treatment, Table 2 (Example 2), n = 3): 22.47 ± 2.31 × 10^-5; mean TGase/DNA × 10^-5 ± s.d ([1]; 2.5 × 10^-7 M RA, 72 hour treatment, Table 3 (Example 3), n = 3): 16.31 ± 2.58 × 10^-5; activity at 0.25 µM ([1]; Homo sapiens, Keratinocyte, 72 h, 2.5 × 10^-7 M RA, 72 hour treatment, Table 2 (Example 2), n = 3, read-out: mean TGase/DNA (% control)): 42%; activity at 0.25 µM ([1]; Homo sapiens, Keratinocyte, 72 h, 2.5 × 10^-7 M RA, 72 hour treatment, Table 3 (Example 3), n = 3, read-out: mean TGase/DNA (% control)): 32%; mean TGase/DNA × 10^-4 ± s.d ([2]; 2.5 × 10^-7 M): 0.16 ± 0.11 × 10^-4; mean TGase/DNA × 10^-4 ± s.d ([2]; 2.5 × 10^-8 M): 1.34 ± 0.40 × 10^-4; mean TGase/DNA × 10^-4 ± s.d ([2]; 2.5 × 10^-9 M): 1.87 ± 0.49 × 10^-4; decrease in transglutaminase level, dose dependence ([2]; listed as retinoic acid): dose dependent; effect on keratinocyte differentiation ([2]; all concentrations tested, versus ethanol control, Example 1): decreased keratinocyte differentiation; extent of decrease versus corresponding retinol treatments ([2]; all concentrations tested, Example 1): significantly greater extent
